Data reported in ChEMBL document CHEMBL1149230, “Long chain amines and long chain ammonium salts as novel inhibitors of dynamin GTPase activity” (Bioorg Med Chem Lett, 2004).
Active and inactive are the calls of the source. No cut-off for these calls is given here.

Assays:
Ovis aries [1] = species: Ovis aries; assay: Concentration required against Dynamin-1 GTPase activity of sheep brain at 3 uM; assay type: tissue-based
Ovis aries [2] = species: Ovis aries; assay: Compound was tested for its ability to inhibit Dynamin-1 GTPase activity of sheep brain at 30 uM; NE=No effect
Ovis aries [3] = species: Ovis aries; assay: Compound was tested for its ability to inhibit Dynamin-1 GTPase activity of sheep brain; Increased activity; assay type: tissue-based

inhibition (Ovis aries [1]): 70%
Activity (Ovis aries [2]): inactive
Concentration (Ovis aries [3]): 300 µM
Compound: CCCC/C=C\C/C=C\C/C=C\C/C=C\CCCC(=O)OCC(O)CO (stereo not drawn)
